# Reference: ChEMBL document CHEMBL3046832, “Synthesis of some sulfonamides, disubstituted sulfonylureas or thioureas and some structurally related variants. A class of promising antitumor agents” (2007)
# Experiments:
# Assay type in all cases: functional
# HCT-15 = assay: Cytotoxicity against Homo sapiens (human) HCT15 cells after 48 hr by SRB assay; settings: HCT-15, 48 h
# [1] = Cytotoxicity against Homo sapiens (human) colon cancer cells after 48 hr by SRB assay; settings: Cancer cell lines
# SK-OV-3 = assay: Cytotoxicity against Homo sapiens (human) SKOV3 cells after 48 hr by SRB assay; settings: SK-OV-3, 48 h
# [2] = Cytotoxicity against Homo sapiens (human) renal cancer cells after 48 hr by SRB assay; settings: Cancer cell lines
# MOLT-4 = assay: Cytotoxicity against Homo sapiens (human) MOLT4 cells after 48 hr by SRB assay; settings: MOLT-4, 48 h
# U-251 = assay: Cytotoxicity against Homo sapiens (human) U251 cells after 48 hr by SRB assay; settings: U-251, 48 h
# COLO 205 = assay: Cytotoxicity against Homo sapiens (human) COLO205 cells after 48 hr by SRB assay; settings: COLO 205, 48 h
# MDA-MB-231 = assay: Cytotoxicity against Homo sapiens (human) MDA-MB-231 cells after 48 hr by SRB assay; settings: MDA-MB-231, 48 h
# MCF7 [3] = assay: Cytotoxicity against Homo sapiens (human) MCF7 cells assessed as cellular growth after 48 hr by Alamar blue assay; parameters: concentration or dose not given beside the values
# 786-0 = assay: Cytotoxicity against Homo sapiens (human) 786-0 cells after 48 hr by SRB assay; settings: 786-0, 48 h
# SK-MEL-28 = assay: Cytotoxicity against Homo sapiens (human) SK-MEL-28 cells after 48 hr by SRB assay; settings: SK-MEL-28, 48 h
# HCC 2998 = assay: Cytotoxicity against Homo sapiens (human) HCC2998 cells after 48 hr by SRB assay; settings: HCC 2998, 48 h
# HT-29 = assay: Cytotoxicity against Homo sapiens (human) HT-29 cells after 48 hr by SRB assay; settings: HT-29, 48 h
# OVCAR-5 = assay: Cytotoxicity against Homo sapiens (human) OVCAR5 cells after 48 hr by SRB assay; settings: OVCAR-5, 48 h
# [4] = Cytotoxicity against Homo sapiens (human) prostate cancer cells after 48 hr by SRB assay; settings: Cancer cell lines
# [5] = Cytotoxicity against Homo sapiens (human) leukemia cells after 48 hr by SRB assay; settings: Leukemia cell
# IGROV-1 = assay: Cytotoxicity against Homo sapiens (human) IGROV1 cells after 48 hr by SRB assay; settings: IGROV-1, 48 h
# OVCAR-8 = assay: Cytotoxicity against Homo sapiens (human) OVCAR8 cells after 48 hr by SRB assay; settings: OVCAR-8, 48 h
# NCI-H23 = assay: Cytotoxicity against Homo sapiens (human) NCI-H23 cells after 48 hr by SRB assay; settings: NCI-H23, 48 h
# HOP-62 = assay: Cytotoxicity against Homo sapiens (human) HOP62 cells after 48 hr by SRB assay; settings: HOP-62, 48 h
# KM12 = assay: Cytotoxicity against Homo sapiens (human) KM12 cells after 48 hr by SRB assay; settings: KM12, 48 h
# [6] = Cytotoxicity against Homo sapiens (human) non-small cell lung cancer cells after 48 hr by SRB assay; settings: Cancer cell lines
# UO-31 = assay: Cytotoxicity against Homo sapiens (human) UO31 cells after 48 hr by SRB assay; settings: UO-31, 48 h
# UACC-62 = assay: Cytotoxicity against Homo sapiens (human) UACC62 cells after 48 hr by SRB assay; settings: UACC-62, 48 h
# RXF 393 = assay: Cytotoxicity against Homo sapiens (human) RXF393 cells after 48 hr by SRB assay; settings: RXF 393, 48 h
# MCF7 [7] = assay: Cytotoxicity against Homo sapiens (human) MCF7 cells after 48 hr by SRB assay; settings: MCF7, 48 h
# OVCAR-4 = assay: Cytotoxicity against Homo sapiens (human) OVCAR4 cells after 48 hr by SRB assay; settings: OVCAR-4, 48 h
# NCI-H522 = assay: Cytotoxicity against Homo sapiens (human) NCI-H522 cells after 48 hr by SRB assay; settings: NCI-H522, 48 h
# CAKI-1 = assay: Cytotoxicity against Homo sapiens (human) Caki1 cells after 48 hr by SRB assay; settings: CAKI-1, 48 h
# DU-145 = assay: Cytotoxicity against Homo sapiens (human) DU145 cells after 48 hr by SRB assay; settings: DU-145, 48 h
# NCI-H460 [8] = assay: Cytotoxicity against Homo sapiens (human) NCI-H460 cells assessed as cellular growth after 48 hr by Alamar blue assay; parameters: concentration or dose not given beside the values
# M14 = assay: Cytotoxicity against Homo sapiens (human) M14 cells after 48 hr by SRB assay; settings: M14, 48 h
# NCI-H460 [9] = assay: Cytotoxicity against Homo sapiens (human) NCI-H460 cells after 48 hr by SRB assay; settings: NCI-H460, 48 h
# T47D = assay: Cytotoxicity against Homo sapiens (human) T47D cells after 48 hr by SRB assay
# A549 = assay: Cytotoxicity against Homo sapiens (human) A549 cells after 48 hr by SRB assay; settings: A549, 48 h
# SF-268 = assay: Cytotoxicity against Homo sapiens (human) SF268 cells assessed as cellular growth after 48 hr by Alamar blue assay; parameters: concentration or dose not given beside the values
# CCRF-CEM = assay: Cytotoxicity against Homo sapiens (human) CCRF-CEM cells after 48 hr by SRB assay
# SF-295 = assay: Cytotoxicity against Homo sapiens (human) SF295 cells after 48 hr by SRB assay; settings: SF-295, 48 h
# EKVX = assay: Cytotoxicity against Homo sapiens (human) EKVX cells after 48 hr by SRB assay
# MDA-MB-435 = assay: Cytotoxicity against Homo sapiens (human) MDA-MB-435 cells after 48 hr by SRB assay; settings: MDA-MB-435, 48 h
# SW-620 = assay: Cytotoxicity against Homo sapiens (human) SW620 cells after 48 hr by SRB assay; settings: SW-620, 48 h
# [10] = Cytotoxicity against Homo sapiens (human) ovarian cancer cells after 48 hr by SRB assay; settings: Cancer cell lines
# SNB-75 = assay: Cytotoxicity against Homo sapiens (human) SNB75 cells after 48 hr by SRB assay; settings: SNB-75, 48 h
# HOP-92 = assay: Cytotoxicity against Homo sapiens (human) HOP92 cells after 48 hr by SRB assay; settings: HOP-92, 48 h
# [11] = Cytotoxicity against Homo sapiens (human) melanoma cells after 48 hr by SRB assay; settings: Melanoma cell
# UACC-257 = assay: Cytotoxicity against Homo sapiens (human) UACC257 cells after 48 hr by SRB assay; settings: UACC-257, 48 h
compound,measurement,setting,value
NS(=O)(=O)c1ccc(-n2nc3c(c2-c2cccs2)Cc2ccccc2-3)cc1,GI50,HCT-15,12 µM
same,GI50,[1],14.9 µM
same,TGI,[1],37.2 µM
same,GI50,SK-OV-3,37.7 µM
same,GI50,[2],13.3 µM
same,TGI,[2],29.7 µM
same,GI50,MOLT-4,1.43 µM
same,GI50,U-251,12.3 µM
same,GI50,COLO 205,25.3 µM
same,GI50,MDA-MB-231,17.3 µM
same,Activity,MCF7 [3],<=32%
same,GI50,786-0,17.1 µM
same,GI50,SK-MEL-28,25.8 µM
same,GI50,HCC 2998,12.8 µM
same,GI50,HT-29,22.9 µM
same,GI50,OVCAR-5,18.5 µM
same,GI50,[4],22.3 µM
same,TGI,[4],22.3 µM
same,GI50,[5],3.3 µM
same,TGI,[5],15.7 µM
same,GI50,IGROV-1,2.49 µM
same,GI50,OVCAR-8,20.5 µM
same,GI50,NCI-H23,11.9 µM
same,GI50,HOP-62,16.5 µM
same,GI50,KM12,13.5 µM
same,GI50,[6],21.7 µM
same,TGI,[6],31.3 µM
same,GI50,UO-31,12.2 µM
same,GI50,UACC-62,11.5 µM
same,GI50,RXF 393,17.4 µM
same,GI50,MCF7 [7],> 100 µM
same,GI50,OVCAR-4,29.9 µM
same,GI50,NCI-H522,12.4 µM
same,GI50,CAKI-1,10.1 µM
same,GI50,DU-145,24.1 µM
same,Activity,NCI-H460 [8],<=32%
same,GI50,M14,17.2 µM
same,GI50,NCI-H460 [9],> 100 µM
same,GI50,T47D,12.8 µM
same,GI50,A549,20.7 µM
same,Activity,SF-268,<=32%
same,GI50,CCRF-CEM,4.24 µM
same,GI50,SF-295,13.8 µM
same,GI50,EKVX,11.9 µM
same,GI50,MDA-MB-435,11.8 µM
same,GI50,SW-620,10.7 µM
same,GI50,[10],20.6 µM
same,TGI,[10],37.3 µM
same,GI50,SNB-75,25.5 µM
same,GI50,HOP-92,5.56 µM
same,GI50,[11],17.5 µM
same,TGI,[11],38.9 µM
same,GI50,UACC-257,23.2 µM
NS(=O)(=O)c1ccc(N2N=C3c4ccccc4CC3C2c2cccs2)cc1 (centres undefined),GI50,HCT-15,34.7 µM
same,GI50,[1],28 µM
same,TGI,[1],74.5 µM
same,GI50,SK-OV-3,48 µM
same,GI50,[2],21.9 µM
same,TGI,[2],43.7 µM
same,GI50,MOLT-4,18.9 µM
same,GI50,U-251,19.4 µM
same,GI50,COLO 205,58.9 µM
same,GI50,MDA-MB-231,16.8 µM
same,Activity,MCF7 [3],<=32%
same,GI50,786-0,17.6 µM
same,GI50,SK-MEL-28,75.6 µM
same,GI50,HCC 2998,14.8 µM
same,GI50,HT-29,26.1 µM
same,GI50,OVCAR-5,26.6 µM
same,GI50,[4],18.3 µM
same,TGI,[4],48.6 µM
same,GI50,[5],35.1 µM
same,TGI,[5],95.5 µM
same,GI50,IGROV-1,30 µM
same,GI50,OVCAR-8,15.3 µM
same,GI50,NCI-H23,20.3 µM
same,GI50,HOP-62,16.9 µM
same,GI50,KM12,15.7 µM
same,GI50,[6],29.6 µM
same,TGI,[6],45.5 µM
same,GI50,UO-31,39.4 µM
same,GI50,UACC-62,21.8 µM
same,GI50,RXF 393,20.6 µM
same,GI50,MCF7 [7],> 100 µM
same,GI50,OVCAR-4,> 100 µM
same,GI50,NCI-H522,39.3 µM
same,GI50,CAKI-1,19.6 µM
same,GI50,DU-145,14.5 µM
same,Activity,NCI-H460 [8],<=32%
same,GI50,M14,26 µM
same,GI50,NCI-H460 [9],> 100 µM
same,GI50,T47D,66.9 µM
same,GI50,A549,13.1 µM
same,Activity,SF-268,<=32%
same,GI50,CCRF-CEM,31.8 µM
same,GI50,SF-295,16.2 µM
same,GI50,EKVX,15.9 µM
same,GI50,MDA-MB-435,19.3 µM
same,GI50,SW-620,35.4 µM
same,GI50,[10],40.8 µM
same,TGI,[10],79.6 µM
same,GI50,SNB-75,31.1 µM
same,GI50,HOP-92,25.8 µM
same,GI50,[11],41.5 µM
same,TGI,[11],51 µM
same,GI50,UACC-257,29.7 µM
O=C(Nc1ccccc1)NS(=O)(=O)c1ccc(N2N=C3c4ccccc4CC3C2c2cccnc2)cc1 (centres undefined),GI50,HCT-15,23.1 µM
same,GI50,[1],26.2 µM
same,TGI,[1],78.7 µM
same,GI50,SK-OV-3,> 100 µM
same,GI50,[2],31.7 µM
same,TGI,[2],86.4 µM
same,GI50,MOLT-4,11.6 µM
same,GI50,U-251,31.9 µM
same,GI50,COLO 205,31.1 µM
same,GI50,MDA-MB-231,19.8 µM
same,Activity,MCF7 [3],<=32%
same,GI50,786-0,35.5 µM
same,GI50,SK-MEL-28,71.5 µM
same,GI50,HCC 2998,17.3 µM
same,GI50,HT-29,37.9 µM
same,GI50,OVCAR-5,26.8 µM
same,GI50,[4],36.4 µM
same,TGI,[4],52.1 µM
same,GI50,[5],26.5 µM
same,TGI,[5],91.4 µM
same,GI50,IGROV-1,16.2 µM
same,GI50,OVCAR-8,27 µM
same,GI50,NCI-H23,20.8 µM
same,GI50,HOP-62,20.4 µM
same,GI50,KM12,24.8 µM
same,GI50,[6],30 µM
same,TGI,[6],56.4 µM
same,GI50,UO-31,48.8 µM
same,GI50,UACC-62,17.8 µM
same,GI50,RXF 393,45.3 µM
same,GI50,MCF7 [7],27 µM
same,GI50,OVCAR-4,> 100 µM
same,GI50,NCI-H522,17.7 µM
same,GI50,CAKI-1,26.4 µM
same,GI50,DU-145,36.6 µM
same,Activity,NCI-H460 [8],<=32%
same,GI50,M14,24.9 µM
same,GI50,NCI-H460 [9],38.5 µM
same,GI50,T47D,93 µM
same,GI50,A549,29.2 µM
same,Activity,SF-268,<=32%
same,GI50,CCRF-CEM,40.9 µM
same,GI50,SF-295,20.6 µM
same,GI50,EKVX,27.8 µM
same,GI50,MDA-MB-435,21.4 µM
same,GI50,SW-620,34 µM
same,GI50,[10],48.6 µM
same,TGI,[10],90.8 µM
same,GI50,SNB-75,> 100 µM
same,GI50,HOP-92,74.9 µM
same,GI50,[11],30.8 µM
same,TGI,[11],49.3 µM
same,GI50,UACC-257,26.6 µM
